Columns and labels:
KP1010 (SHV-12) = assay: Tigemonam potentiation (MPC@4), KP1010; type: cell-based
KPC-2 = KPC-2 (Klebsiella pneumoniae, UniProt Q9F663); assay: Ki, nitrocefin cleavage by purified enzyme, KPC-2; type: biochemical; details: nitrocefin reporter substrate; read-out: Ki (KPC-2, NCF)
Method in brief: (§1)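 Readout: nitrocefin hydrolysis, A490 recorded every 10 sec over 10 min. Enzyme and inhibitor (varied concentrations) preincubated 10 min, RT, in reaction buffer before substrate addition.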

ec308 (SHV-5) = assay: Tigemonam potentiation (MPC@4), ec308; type: cell-based
KP1004 (KPC-2) [1] = assay: Biapenem potentiation (MPC@1), KP1004; details: BLI with biapenem at 1 μg/mL
KP1009 (CTX-M-15) [2] = assay: Tigemonam potentiation (MPC@4), KP1009; type: cell-based; details: BLI with tigemonam at 4 μg/mL
KP1086 (OXA-48) = assay: Biapenem potentiation (MPC@1), KP1086; details: BLI with biapenem at 1 μg/mL
ec302 (TEM-10) [3] = assay: Tigemonam potentiation (MPC@4), ec302; type: cell-based
ECL1002 [4] = assay: Tigemonam potentiation (MPC@4), ECL1002; type: cell-based; details: BLI with tigemonam at 4 μg/mL
KP1004 (KPC-2) [5] = assay: Aztreonam potentiation (MPC@4), KP1004; type: cell-based; details: BLI with aztreonam at 4 μg/mL
Pa AmpC = Pa AmpC (Pseudomonas aeruginosa, UniProt P24735); assay: Ki, nitrocefin cleavage by purified enzyme, Pa AmpC; type: biochemical; details: nitrocefin reporter substrate; read-out: Ki (Pa AmpC, NCF)
Pa AmpC, sequence (P24735 27-397): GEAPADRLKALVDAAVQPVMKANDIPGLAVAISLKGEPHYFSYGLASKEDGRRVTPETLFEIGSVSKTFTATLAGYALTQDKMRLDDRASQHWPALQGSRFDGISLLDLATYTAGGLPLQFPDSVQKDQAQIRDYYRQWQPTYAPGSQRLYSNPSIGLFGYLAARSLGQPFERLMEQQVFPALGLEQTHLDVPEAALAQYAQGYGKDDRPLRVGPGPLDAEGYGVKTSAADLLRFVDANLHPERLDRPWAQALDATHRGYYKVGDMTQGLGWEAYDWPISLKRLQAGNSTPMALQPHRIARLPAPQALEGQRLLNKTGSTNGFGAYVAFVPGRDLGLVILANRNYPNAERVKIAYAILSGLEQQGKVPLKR
Experimental: Ki values of inhibition of purified class A, C and D enzymes were determined spectrophotometrically using nitrocefin as reporter substrate. Purified enzymes were mixed with various concentrations of inhibitors in reaction buffer and incubated for 10 min at room temperature. Nitrocefin was added and substrate cleavage profiles were recorded at 490 nm every 10 sec for 10 min. These experiments confirmed that the described compounds are inhibitors with a broad-spectrum of activity towards various β-lactamases.

OXA-48 = OXA-48 (Klebsiella pneumoniae, UniProt Q6XEC0); assay: Ki, nitrocefin cleavage by purified enzyme, OXA-48; type: biochemical; details: nitrocefin reporter substrate; read-out: Ki (OXA-48, NCF)
OXA-48, sequence (Q6XEC0 23-265, looked up, species assumed): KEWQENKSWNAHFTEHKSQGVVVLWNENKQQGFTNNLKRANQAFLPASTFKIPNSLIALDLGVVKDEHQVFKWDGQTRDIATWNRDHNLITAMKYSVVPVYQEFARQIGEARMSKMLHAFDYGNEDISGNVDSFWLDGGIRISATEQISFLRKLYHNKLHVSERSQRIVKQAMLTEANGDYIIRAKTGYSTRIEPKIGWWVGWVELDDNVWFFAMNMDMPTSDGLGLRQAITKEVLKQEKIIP
Method in brief: as §1

KP1005 (CTX-M-14) [6] = assay: Tigemonam potentiation (MPC@4), KP1005; type: cell-based; details: BLI with tigemonam at 4 μg/mL
EC1010 (CMY-6) [7] = assay: organism not typed; type: cell-based
SHV-12 = SHV-12 (Klebsiella pneumoniae, UniProt P0AD64, E235K/G234S/L31Q); assay: Ki, nitrocefin cleavage by purified enzyme, SHV-12; type: biochemical; details: nitrocefin reporter substrate; read-out: Ki (SHV-12, NCF)
SHV-12, sequence (P0AD64 22-286 L31Q/G234S/E235K): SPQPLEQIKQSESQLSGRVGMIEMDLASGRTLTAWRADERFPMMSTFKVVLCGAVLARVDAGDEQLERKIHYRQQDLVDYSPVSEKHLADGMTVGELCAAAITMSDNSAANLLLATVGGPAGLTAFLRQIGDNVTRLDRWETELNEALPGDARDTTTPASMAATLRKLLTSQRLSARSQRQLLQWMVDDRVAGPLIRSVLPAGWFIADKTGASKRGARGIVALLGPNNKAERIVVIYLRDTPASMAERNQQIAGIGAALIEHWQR
Method in brief: as §1

ECL1002 [8] = assay: Aztreonam potentiation (MPC@4), ECL1002; type: cell-based; details: BLI with aztreonam at 4 μg/mL
ec302 (TEM-10) [9] = assay: Aztreonam potentiation (MPC@4), ec302; type: cell-based; details: BLI with aztreonam at 4 μg/mL
CTX-M-14 = CTX-M-14 (Escherichia coli, UniProt Q9L5C7); assay: Ki, nitrocefin cleavage by purified enzyme, CTX-M-14; type: biochemical; details: nitrocefin reporter substrate; read-out: Ki (CTX-M-14, NCF)
CTX-M-14, sequence (Q9L5C7 29-291): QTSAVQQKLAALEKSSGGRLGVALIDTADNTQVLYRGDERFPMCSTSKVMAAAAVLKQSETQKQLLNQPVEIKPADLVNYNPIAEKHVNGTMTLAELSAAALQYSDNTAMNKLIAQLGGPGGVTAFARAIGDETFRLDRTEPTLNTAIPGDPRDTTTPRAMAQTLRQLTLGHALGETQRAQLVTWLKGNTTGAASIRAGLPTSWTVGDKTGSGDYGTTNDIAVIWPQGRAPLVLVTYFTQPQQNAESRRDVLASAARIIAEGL
Method in brief: as §1

EC1010 (CMY-6) [10] = assay: Tigemonam potentiation (MPC@4), EC1010; type: cell-based; details: BLI with tigemonam at 4 μg/mL
P99 = P99 (Enterobacter cloacae, UniProt P05364); assay: Ki, nitrocefin cleavage by purified enzyme, P99; type: biochemical; details: nitrocefin reporter substrate; read-out: Ki (P99, NCF)
P99, sequence (P05364 21-381): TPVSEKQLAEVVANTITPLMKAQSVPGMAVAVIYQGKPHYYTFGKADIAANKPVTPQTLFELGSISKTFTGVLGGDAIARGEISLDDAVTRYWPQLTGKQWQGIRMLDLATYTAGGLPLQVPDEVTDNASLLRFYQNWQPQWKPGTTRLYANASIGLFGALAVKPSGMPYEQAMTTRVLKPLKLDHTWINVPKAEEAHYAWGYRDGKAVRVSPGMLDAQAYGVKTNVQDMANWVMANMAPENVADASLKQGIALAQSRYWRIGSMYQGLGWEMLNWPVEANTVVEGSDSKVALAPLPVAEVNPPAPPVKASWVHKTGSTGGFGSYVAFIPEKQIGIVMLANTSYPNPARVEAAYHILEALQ
Method in brief: as §1

KP1005 (CTX-M-14) [11] = assay: Aztreonam potentiation (MPC@4), KP1005; type: cell-based; details: BLI with aztreonam at 4 μg/mL
[12] = Monomer content of pH adjusted aqueous solutions (LC-UV); type: physicochemical; details: 1 mg/mL aqueous salt solution, pH adjusted to 7.6 to 8, LC-UV
Experimental: Boronic acid containing compounds are known to undergo oligomerization. The presence of oligomers can greatly complicate drug development, as they represent new chemical species whose content must be controlled and qualified by testing in toxoicology studies. The monomer content of compounds was evaluated by adjusting aqueous solutions to physiological pH at various concentrations. The monomer content of pH adjusted solutions was measured using LC-UV. Test compounds were weighed out into a 1.5 mL Eppendorf tube. A solution of water was prepared in 1.00 mg/mL, 10.0 mg/mL or 100 mg/mL concentrations of the compound based on active fraction. A volume 20 uL was subtracted to allow room for addition of acid or base to adjust pH. The solution pH was measured. The pH was then adjusted through addition of acid or base as necessary until the reading was in the 7.6 to 8 range. A final pH measurement was made after ensuring all the compound was in solution. The solution was injected onto LC-UV in 0.1 uL to 5 uL volume within less than half an hour after the time the sample was prepared. Elution was done using 0.1% TFA in water for mobile phase A and 0.085% TFA in methanol for mobile phase B on an Excel ACE 5 Super C18 2.1×100 mm column at 0.6 ml/min flow rate with 9 min gradient, 3.9 minute hold at 90% B and 18 minute run time. The absorption was measured at 220, 254 and 300 nm with a 4 nm bandwidth.

KP1009 (CTX-M-15) [13] = assay: organism not typed; type: cell-based

KPC-2, sequence (Q9F663 25-293, looked up, species assumed): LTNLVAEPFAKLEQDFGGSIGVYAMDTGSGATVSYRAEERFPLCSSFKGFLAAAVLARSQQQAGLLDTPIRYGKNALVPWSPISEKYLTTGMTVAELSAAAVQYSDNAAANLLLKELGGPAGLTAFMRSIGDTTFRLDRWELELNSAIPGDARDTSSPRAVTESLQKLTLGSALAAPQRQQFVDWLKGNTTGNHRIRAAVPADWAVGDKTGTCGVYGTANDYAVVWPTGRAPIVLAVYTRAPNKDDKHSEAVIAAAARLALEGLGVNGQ

SMILES | TIG MPC4 SHV-12 KP1010 (KP1010 (SHV-12)) | Ki (KPC-2) [nM] | TIG MPC4 SHV-5 ec308 (ec308 (SHV-5)) | BPM MPC1 KP1004 KPC-2 (KP1004 (KPC-2) [1]) | TIG MPC4 CTX-M-15 KP1009 (KP1009 (CTX-M-15) [2]) | BPM MPC1 OXA-48 KP1086 (KP1086 (OXA-48)) | TIG MPC4 TEM-10 ec302 (ec302 (TEM-10) [3]) | TIG MPC4 ECL1002 (ECL1002 [4]) | AZT MPC4 KPC-2 KP1004 (KP1004 (KPC-2) [5]) | Ki (Pa AmpC) [nM] | Ki (OXA-48) [nM] | TIG MPC4 CTX-M-14 KP1005 (KP1005 (CTX-M-14) [6]) | AZT MPC4 CMY-6 EC1010 (EC1010 (CMY-6) [7]) | Ki (SHV-12) [nM] | AZT MPC4 ECL1002 (ECL1002 [8]) | AZT MPC4 TEM-10 ec302 (ec302 (TEM-10) [9]) | Ki (CTX-M-14) [nM] | TIG MPC4 CMY-6 EC1010 (EC1010 (CMY-6) [10]) | Ki (P99) [nM] | also measured
O=C(O)CC(=O)N[C@H]1Cc2ccc(F)c(C(=O)O)c2OB1O [Compound 4, (R)-3-(2-carboxyacetamido)-7-fluoro-2-hydroxy-3,4-dihydro-2H-benzo[e][1,2]oxaborinine-8-carboxylic acid] | Y (key: X: MIC of less than 1 ng/mL; Y: MIC of 1 μg/mL to 10 μg/mL; Z: MIC of greater than 10 μg/mL) | > 10 | Y (key: X: MIC of less than 1 ng/mL; Y: MIC of 1 μg/mL to 10 μg/mL; Z: MIC of greater than 10 μg/mL) | X (MIC of less than 1 μg/mL) | X (MIC of less than 1 μg/mL) | Z (MIC of greater than 10 μg/mL) | Z (key: X: MIC of less than 1 ng/mL; Y: MIC of 1 μg/mL to 10 μg/mL; Z: MIC of greater than 10 μg/mL) | X (MIC of less than 1 μg/mL) | Y (MIC of 1 μg/mL to 10 μg/mL) | > 10 | < 1 | Y (MIC of 1 μg/mL to 10 μg/mL) | Y (key: X: MIC of less than 1 ng/mL; Y: MIC of 1 μg/mL to 10 μg/mL; Z: MIC of greater than 10 μg/mL) | < 1 | Y (MIC of 1 μg/mL to 10 μg/mL) | Y (MIC of 1 μg/mL to 10 μg/mL) | < 1 | X (MIC of less than 1 μg/mL) | > 10 | AZT MPC4 CTX-M-14 KP1005 (KP1005 (CTX-M-14) [11]): Y (MIC of 1 μg/mL to 10 μg/mL)
CSCC(=O)N[C@H]1Cc2ccc(SC3CNC3)c(C(=O)O)c2OB1O [Compound 11, (R)-7-(azetidin-3-ylthio)-2-hydroxy-3-(2-(methylthio)acetamido)-3,4-dihydro-2H-benzo oxaborinine-8-carboxylic acid] | X (key: X: MIC of less than 1 μg/mL; Y: MIC of 1 μg/mL to 10 μg/mL; Z: MIC of greater than 10 μg/mL) | > 10 | X (key: X: MIC of less than 1 μg/mL; Y: MIC of 1 μg/mL to 10 μg/mL; Z: MIC of greater than 10 μg/mL) | X (MIC of less than 1 μg/mL) | Y (MIC of 1 μg/mL to 10 μg/mL) | Y (MIC of 1 μg/mL to 10 μg/mL) | Z (key: X: MIC of less than 1 ng/mL; Y: MIC of 1 μg/mL to 10 μg/mL; Z: MIC of greater than 10 μg/mL) | X (MIC of less than 1 μg/mL) | Y (MIC of 1 μg/mL to 10 μg/mL) | > 10 | 1 to 10 | X (MIC of less than 1 μg/mL) | Y (key: X: MIC of less than 1 ng/mL; Y: MIC of 1 μg/mL to 10 μg/mL; Z: MIC of greater than 10 μg/mL) | 1 to 10 | Y (MIC of 1 μg/mL to 10 μg/mL) | Y (MIC of 1 μg/mL to 10 μg/mL) | 1 to 10 | X (MIC of less than 1 μg/mL) | > 10 | % Monomer in 1 mg/mL salt solution [12]: 88.0%
CSCC(=O)N[C@H]1Cc2ccc(OCCO)c(C(=O)O)c2OB1O [Compound 20, (R)-2-hydroxy-7-(2-hydroxyethoxy)-3-(2-(methylthio)acetamido)-3,4-dihydro-2H-benzo[e][1,2]oxaborinine-8-carboxylic acid] | X (key: X: MIC of less than 1 μg/mL; Y: MIC of 1 μg/mL to 10 μg/mL; Z: MIC of greater than 10 μg/mL) | > 10 | X (key: X: MIC of less than 1 μg/mL; Y: MIC of 1 μg/mL to 10 μg/mL; Z: MIC of greater than 10 μg/mL) | X (MIC of less than 1 μg/mL) | X (MIC of less than 1 μg/mL) | Z (MIC of greater than 10 μg/mL) | Z (key: X: MIC of less than 1 ng/mL; Y: MIC of 1 μg/mL to 10 μg/mL; Z: MIC of greater than 10 μg/mL) | X (MIC of less than 1 μg/mL) | Y (MIC of 1 μg/mL to 10 μg/mL) | > 10 | < 1 | Y (MIC of 1 μg/mL to 10 μg/mL) | Y (key: X: MIC of less than 1 ng/mL; Y: MIC of 1 μg/mL to 10 μg/mL; Z: MIC of greater than 10 μg/mL) | < 1 | Y (MIC of 1 μg/mL to 10 μg/mL) | Y (MIC of 1 μg/mL to 10 μg/mL) | < 1 | X (MIC of less than 1 μg/mL) | > 10 | AZT MPC4 CTX-M-15 KP1009 (KP1009 (CTX-M-15) [13]): Y (key: X: MIC of less than 1 ng/mL; Y: MIC of 1 μg/mL to 10 μg/mL; Z: MIC of greater than 10 μg/mL)
CSCC(=O)N[C@H]1Cc2cc(F)c(F)c(C(=O)O)c2OB1O [Compound 36, (R)-6,7-difluoro-2-hydroxy-3-(2-(methylthio)acetamido)-3,4-dihydro-2H-benzo[e][1,2]oxaborinine-8-carboxylic acid] | X (key: X: MIC of less than 1 μg/mL; Y: MIC of 1 μg/mL to 10 μg/mL; Z: MIC of greater than 10 μg/mL) | > 10 | X (key: X: MIC of less than 1 μg/mL; Y: MIC of 1 μg/mL to 10 μg/mL; Z: MIC of greater than 10 μg/mL) | X (MIC of less than 1 μg/mL) | X (MIC of less than 1 μg/mL) | Y (MIC of 1 μg/mL to 10 μg/mL) | Y (key: X: MIC of less than 1 ng/mL; Y: MIC of 1 μg/mL to 10 μg/mL; Z: MIC of greater than 10 μg/mL) | X (MIC of less than 1 μg/mL) | Y (MIC of 1 μg/mL to 10 μg/mL) | > 10 | < 1 | X (MIC of less than 1 μg/mL) | Y (key: X: MIC of less than 1 ng/mL; Y: MIC of 1 μg/mL to 10 μg/mL; Z: MIC of greater than 10 μg/mL) | < 1 | Y (MIC of 1 μg/mL to 10 μg/mL) | Y (MIC of 1 μg/mL to 10 μg/mL) | < 1 | X (MIC of less than 1 μg/mL) | > 10 | –
